Molecules are shown by their SMILES.

This data set is described as follows: RP, Waters ACQUITY Premier BEH C18, 100 × 2.1 mm, 1.7 µm, 40 °C, 0.3 to 0.4 mL/min, estimated dead time 0.73 min; A: water + 0.1% formic acid; B: acetonitrile + 0.1% formic acid; gradient (min/%B) 0/0.5 0.1/0.5 10/80 10.1/99.5 12/0.5 12.1/0.5 14.5/0.5. The following applies: stereoisomer not certain.
As to `O=C(O)C1OC(Oc2c(-c3ccc(O)c(O)c3)oc3cc(O)cc(O)c3c2=O)C(O)C(O)C1O` (configuration not stated) [QUERCETIN 3-O-GLUCURONIDE], the LC retention time is 4.41 min.

`O=c1[nH]c(=O)c2[nH]cnc2[nH]1` [XANTHINE]: the LC retention time is 2.11 min. To `CC(=O)NC1C(O)OC(CO)C(O)C1OC(C)C(=O)O` (configuration not stated) [N-ACETYLMURAMATE] belongs 1.09 min. On to `O=c1oc2cc(O)ccc2c2oc3cc(O)ccc3c12` [COUMESTEROL], for which the LC retention time was 6.04 min. In the case of `Nc1ccccc1O` [2-AMINOPHENOL] it was 1.62 min; in that of `NC(=O)c1ncn(C2OC(COP(=O)(O)O)C(O)C2O)c1N` (configuration not stated) [AICAR], 1.28 min. In the case of `CCCCCC(O)CC(=O)CCc1ccc(O)c(OC)c1` (configuration not stated) [GINGEROL] it was 7.34 min; in that of `Nc1nc2nc[nH]c2c(=O)[nH]1` [GUANINE], 1.29 min; in that of `Cn1c(=O)[nH]c2[nH]c(=O)[nH]c2c1=O` [1-METHYLURIC ACID], 1.21 min. To `CC1(O)CCOC(=O)C1` (configuration not stated) [MEVALOLACTONE] belongs 3.33 min; to `CC(C)CC(O)C(=O)O` (configuration not stated) [HYDROXYISOCAPROIC ACID], 4.88 min; to `CCCCCC=CCC=CCC=CCC=CCCCC(=O)O` [ARACHIDONIC ACID], 9 min.

Turning to `O=C(O)c1cc(O)c2c(c1)C(=O)c1cccc(O)c1C2=O` [RHEIN], the LC retention time was 7.07 min. In the case of `CC(C)(CO)C(O)C(=O)NCCC(=O)O` (configuration not stated) [PANTOTHENATE] it was 3.72 min; in that of `Cn1cnc2c1c(=O)[nH]c(=O)n2C` [THEOBROMINE], 3.71 min; in that of `COc1cc2c(c(O)c1C(=O)C=Cc1ccc(O)cc1)C(O)CC(C)(C)O2` (configuration not stated) [ISOXANTHOHUMOL B], 6.64 min.

As for `COc1ccc(-c2oc3cc(OC)c(OC)c(O)c3c(=O)c2OC)cc1O` [CASTICIN], the LC retention time is 6.98 min. For `O=C(O)C(O)CCO` (configuration not stated) [2,4-DIHYDROXYBUTANOIC ACID], the LC retention time was 1.07 min. In the case of `NC(Cc1c[nH]c2ccc(O)cc12)C(=O)O` (configuration not stated) [5-HYDROXYTRYPTOPHAN] it was 3.46 min; in that of `CC(O)CCCC(=O)O` (configuration not stated) [5-HYDROXYHEXANOIC ACID], 3.96 min.

Consider `Oc1ccc(O)cc1` [HYDROQUINONE], for which the LC retention time was 4.46 min.

On to `Nc1ncnc2c1ncn2C1OC(CSCCC(N)C(=O)O)C(O)C1O` (configuration not stated) [S-ADENOSYLHOMOCYSTEINE], for which the LC retention time was 3.08 min. On to `O=c1c2cc(O)c(O)cc2oc2cc(O)c(C3OC(CO)C(O)C(O)C3O)c(O)c12` (configuration not stated) [MANGIFERIN], for which the LC retention time was 3.75 min. To `O=c1ccn(C2OC(COP(=O)(O)O)C(O)C2O)c(=O)[nH]1` (configuration not stated) [URIDINE MONOPHOSPHATE] belongs 1.26 min; to `Cn1c(=O)c2c(ncn2C)n(C)c1=O` [CAFFEINE], 4.3 min.

`CCC(O)C(=O)O` (configuration not stated) [2-HYDROXYBUTYRATE]: the LC retention time was 2.82 min.

For `Nc1ncnc2c1ncn2C1OC2COP(=O)(O)OC2C1O` (configuration not stated) [CYCLIC AMP], the LC retention time was 3.35 min. In the case of `NC(Cc1ccc(O)cc1)C(=O)O` (configuration not stated) [TYROSINE] it was 2.44 min; in that of `COc1cc(C=CC(=O)O)ccc1O` [FERULATE], 5.17 min; in that of `CCCc1oc(CCC(=O)O)c(C(=O)O)c1C` [3-CARBOXY-4-METHYL-5-PROPYL-2-FURANPROPIONIC ACID], 6.56 min. To `Nc1nc2c(ncn2C2CC(O)C(CO)O2)c(=O)[nH]1` (configuration not stated) [DEOXYGUANOSINE] belongs 3.39 min; to `O=C(C=Cc1ccc(O)c(O)c1)OC(Cc1ccc(O)c(O)c1)C(=O)O` (configuration not stated) [ROSMARINATE], 5.44 min; to `Cc1cnc(=O)[nH]c1N` [5-METHYLCYTOSINE], 0.94 min. Regarding `Nc1nc2c(ncn2C2CC(O)C(COP(=O)(O)O)O2)c(=O)[nH]1` (configuration not stated) [DEOXYGUANOSINE-MONOPHOSPHATE], the LC retention time was 1.47 min.

In the case of `O=C(O)C(O)c1ccc(O)cc1` (configuration not stated) [P-HYDROXYMANDELIC ACID], the LC retention time was 2.48 min.

With `CCCCCCC(O)CCCCCCCCCCC(=O)O` (configuration not stated) [12-HYDROXYSTEARIC ACID], the LC retention time is 8.29 min. `CNCCc1c[nH]c2ccccc12` [N-METHYLTRYPTAMINE]: the LC retention time was 4.45 min.

The values are drawn from the RepoRT retention time repository.
